For one experiment, the target named is human TLR7 (Homo sapiens (Human), UniProt Q9NYK1). As to the kind of experiment: TLR7 inhibition reporter assay (HEK-Blue SEAP). Conditions: HEK-Blue cells overexpressing human TLR7, gardiquimod 7.5 μM stimulation. The experiment is classed as cell-based.
A further experiment concerns the target human TLR8 (Homo sapiens (Human), UniProt Q9NR97). As to the kind of experiment: TLR8 inhibition reporter assay (HEK-Blue SEAP).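 Also: SEAP driven by IFN-β minimal promoter with five NF-κB and AP-1 sites, compounds tested 0.05 nM to 50 µM, 22 h incubation, inhibition relative to agonist plus DMSO wells.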 A general note: Reporter assays use an easily measured gene product as a stand-in for the process of interest.
In the next experiment the target is human TLR9 (Homo sapiens (Human), UniProt Q9NR96). As to the kind of experiment: TLR9 inhibition reporter assay (HEK-Blue SEAP).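 Also: SEAP driven by IFN-β minimal promoter carrying five NF-κB and AP-1 sites, 22 h at 37 °C, compounds 0.05 nM–50 µM, inhibition scaled between agonist-plus-DMSO and reference-inhibitor wells.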
Setting [1] is: read-out: TLR8 IC50, HEK-Blue cells overexpressing human TLR8, R848 15.9 μM stimulation, SEAP reporter.
[2] abbreviates: read-out: TLR9 IC50, HEK-Blue cells overexpressing human TLR9, ODN2006 5 nM stimulation, SEAP reporter.

SMILES strings stand for the structures. Read-outs that look alike come from different tables or passages of the source. Some results are limits rather than exact numbers.

human TLR7, sequence (Q9NYK1 27-1049): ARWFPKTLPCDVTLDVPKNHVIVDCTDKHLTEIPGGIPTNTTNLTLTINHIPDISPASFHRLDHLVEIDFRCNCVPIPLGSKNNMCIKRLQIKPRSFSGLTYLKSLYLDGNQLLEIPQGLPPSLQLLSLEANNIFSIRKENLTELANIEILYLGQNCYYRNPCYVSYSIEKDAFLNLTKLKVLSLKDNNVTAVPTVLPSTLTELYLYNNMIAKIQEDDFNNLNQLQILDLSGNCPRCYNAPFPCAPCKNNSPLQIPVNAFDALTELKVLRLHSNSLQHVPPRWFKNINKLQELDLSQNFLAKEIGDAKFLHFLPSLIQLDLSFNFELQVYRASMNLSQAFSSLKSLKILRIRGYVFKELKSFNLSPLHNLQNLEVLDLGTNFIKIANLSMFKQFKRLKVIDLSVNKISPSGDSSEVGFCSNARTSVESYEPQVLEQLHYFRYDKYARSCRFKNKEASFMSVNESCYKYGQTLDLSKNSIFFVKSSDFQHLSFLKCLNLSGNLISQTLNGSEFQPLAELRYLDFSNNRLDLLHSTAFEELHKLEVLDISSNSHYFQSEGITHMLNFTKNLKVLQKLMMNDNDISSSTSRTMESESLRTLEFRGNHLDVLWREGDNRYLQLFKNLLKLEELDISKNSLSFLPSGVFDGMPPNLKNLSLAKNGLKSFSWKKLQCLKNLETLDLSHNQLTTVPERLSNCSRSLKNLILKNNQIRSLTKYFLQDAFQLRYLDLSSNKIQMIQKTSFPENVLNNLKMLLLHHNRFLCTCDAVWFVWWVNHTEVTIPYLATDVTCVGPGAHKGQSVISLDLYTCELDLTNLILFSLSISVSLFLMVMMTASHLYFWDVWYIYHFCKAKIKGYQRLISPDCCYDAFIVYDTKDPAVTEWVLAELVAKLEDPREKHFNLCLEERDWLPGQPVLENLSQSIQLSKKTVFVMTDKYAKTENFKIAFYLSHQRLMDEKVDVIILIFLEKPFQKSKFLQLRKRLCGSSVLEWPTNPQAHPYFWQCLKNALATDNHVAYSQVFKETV
human TLR8, sequence (Q9NR97 27-1041): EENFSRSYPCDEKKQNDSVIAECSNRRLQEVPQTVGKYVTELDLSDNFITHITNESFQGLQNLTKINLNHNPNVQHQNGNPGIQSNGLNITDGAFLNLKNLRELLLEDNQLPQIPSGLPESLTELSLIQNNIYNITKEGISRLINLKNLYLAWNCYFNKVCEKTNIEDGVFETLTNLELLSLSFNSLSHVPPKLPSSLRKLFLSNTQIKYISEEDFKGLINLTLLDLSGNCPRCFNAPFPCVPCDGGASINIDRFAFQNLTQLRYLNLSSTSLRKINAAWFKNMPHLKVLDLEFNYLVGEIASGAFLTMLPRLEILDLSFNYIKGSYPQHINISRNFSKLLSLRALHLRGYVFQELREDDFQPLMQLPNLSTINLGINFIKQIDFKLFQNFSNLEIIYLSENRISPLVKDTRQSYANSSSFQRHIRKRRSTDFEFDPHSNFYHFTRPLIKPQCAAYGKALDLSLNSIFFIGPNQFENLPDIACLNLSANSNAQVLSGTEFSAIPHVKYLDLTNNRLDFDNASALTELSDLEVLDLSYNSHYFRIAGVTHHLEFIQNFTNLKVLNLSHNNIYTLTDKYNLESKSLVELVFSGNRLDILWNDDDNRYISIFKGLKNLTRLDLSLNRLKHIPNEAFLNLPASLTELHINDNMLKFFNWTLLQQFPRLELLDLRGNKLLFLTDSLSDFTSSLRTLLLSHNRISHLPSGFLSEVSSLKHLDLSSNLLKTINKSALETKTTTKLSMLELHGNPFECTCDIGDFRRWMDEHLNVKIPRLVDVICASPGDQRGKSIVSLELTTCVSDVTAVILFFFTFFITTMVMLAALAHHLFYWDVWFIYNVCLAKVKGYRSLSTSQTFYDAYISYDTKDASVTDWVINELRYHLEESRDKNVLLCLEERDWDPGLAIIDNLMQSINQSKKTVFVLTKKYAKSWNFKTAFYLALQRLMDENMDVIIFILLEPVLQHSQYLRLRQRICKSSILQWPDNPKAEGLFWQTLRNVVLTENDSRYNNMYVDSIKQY
human TLR9, sequence (Q9NR96 26-1032): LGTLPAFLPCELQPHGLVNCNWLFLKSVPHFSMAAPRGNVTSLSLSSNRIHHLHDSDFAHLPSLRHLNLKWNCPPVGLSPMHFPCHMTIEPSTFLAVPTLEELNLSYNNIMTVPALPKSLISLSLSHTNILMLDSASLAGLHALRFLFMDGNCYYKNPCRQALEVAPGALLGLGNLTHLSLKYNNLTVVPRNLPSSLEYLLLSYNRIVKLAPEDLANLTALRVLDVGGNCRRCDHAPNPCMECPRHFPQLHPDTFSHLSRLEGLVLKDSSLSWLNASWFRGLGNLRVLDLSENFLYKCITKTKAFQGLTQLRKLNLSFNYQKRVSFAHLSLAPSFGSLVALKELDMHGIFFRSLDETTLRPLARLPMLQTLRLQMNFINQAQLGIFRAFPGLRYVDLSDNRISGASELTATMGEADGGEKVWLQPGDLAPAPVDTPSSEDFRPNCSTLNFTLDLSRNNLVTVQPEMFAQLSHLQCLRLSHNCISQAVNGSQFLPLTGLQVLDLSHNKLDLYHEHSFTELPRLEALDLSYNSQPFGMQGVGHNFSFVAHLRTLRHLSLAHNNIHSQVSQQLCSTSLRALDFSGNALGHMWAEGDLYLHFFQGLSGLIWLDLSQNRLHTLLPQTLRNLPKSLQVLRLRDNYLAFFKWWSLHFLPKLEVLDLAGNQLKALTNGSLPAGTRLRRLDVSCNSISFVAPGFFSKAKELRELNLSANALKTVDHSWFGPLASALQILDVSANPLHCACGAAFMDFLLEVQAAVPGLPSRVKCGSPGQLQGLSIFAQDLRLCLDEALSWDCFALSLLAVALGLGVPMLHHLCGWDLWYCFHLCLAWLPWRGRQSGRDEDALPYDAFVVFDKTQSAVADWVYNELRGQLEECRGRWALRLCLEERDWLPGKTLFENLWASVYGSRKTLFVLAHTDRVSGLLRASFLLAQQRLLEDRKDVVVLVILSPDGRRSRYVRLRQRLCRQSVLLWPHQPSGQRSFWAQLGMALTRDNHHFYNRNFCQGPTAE

Usually IC50 stands for the midpoint of a concentration-inhibition curve. Turning to `Cc1c(-c2[nH]c3cnc(N4CC5(CN(CCS(C)(=O)=O)C5)C4)c(F)c3c2C(C)C)cn2ncnc2c1C` [Example 396], the IC50 on human TLR7 was 99 nM; on human TLR8 (setting [1]) it was 19 nM; at human TLR9 (setting [2]) it was more than 50000 nM.
For `Cc1c(-c2[nH]c3cnc(N4CC5(CN(CC#N)C5)C4)c(F)c3c2C(C)C)cn2ncnc2c1C` [Example 397], the IC50 against human TLR7 came out at 48 nM; at human TLR8 (setting [1]), 30 nM; on human TLR9 (setting [2]), 43200 nM.
The corresponding values for `Cc1c(-c2[nH]c3cnc(N4CCN(CCS(C)(=O)=O)CC4)c(F)c3c2C(C)C)cn2ncnc2c1C` [Example 398] are 7.2 nM, 1.9 nM and 46800 nM.
Consider `Cc1c(-c2[nH]c3cnc(N4CC5(CN(C(=O)CN6CCOCC6)C5)C4)c(F)c3c2C(C)C)cn2ncnc2c1C` [Example 399, 1-(6-(2-(7,8-dimethyl-[1,2,4]triazolo[1,5-a]pyridin-6-yl)-4-fluoro-3-isopropyl-1H-pyrrolo[2,3-c]pyridin-5-yl)-2,6-diazaspiro[3.3]heptan-2-yl)-2-morpholinoethan-1-one], for which the IC50 was 409 nM against human TLR7, 4.1 nM at human TLR8 (setting [1]) and more than 50000 nM at human TLR9.
On to `Cc1c(-c2[nH]c3cnc(N4CC5(C4)CN(C4COC4)C5)c(F)c3c2C(C)C)cn2ncnc2c1C` [Example 400, 6-(4-fluoro-3-isopropyl-5-(6-(oxetan-3-yl)-2,6-diazaspiro[3.3]heptan-2-yl)-1H-pyrrolo[2,3-c]pyridin-2-yl)-7,8-dimethyl-[1,2,4]triazolo[1,5-a]pyridine], for which the values for the IC50 against human TLR7, against human TLR8 and on human TLR9 were 82 nM, 1.6 nM and more than 50000 nM, respectively.
`Cc1c(-c2[nH]c3cnc(N4CC5(C4)CN(C4CCOCC4)C5)c(F)c3c2C(C)C)cn2ncnc2c1C` [Example 401]: the IC50 on human TLR7 was found to be 27 nM; on human TLR8 (setting [1]), 4.4 nM; at human TLR9 (setting [2]) it was 6440 nM.
With `Cc1c(-c2[nH]c3cnc(N4CC5(CN(CC(C)C)C5)C4)c(F)c3c2C(C)C)cn2ncnc2c1C` [Example 402], the results for the IC50 against human TLR7, at human TLR8 (setting [1]) and at human TLR9 (setting [2]) were 30 nM, 4.4 nM and 5970 nM, respectively.
On to `Cc1c(-c2[nH]c3cnc(N4CC5(C4)CN(C(C)C)C5)c(F)c3c2C(C)C)cn2ncnc2c1C` [Example 403], for which the IC50 at human TLR7 was 25 nM; on human TLR8 (setting [1]), 1.7 nM; at human TLR9 (setting [2]), 9260 nM.
Take `Cc1c(-c2[nH]c3cnc(N4CC5(CN(CC6CCC6)C5)C4)c(F)c3c2C(C)C)cn2ncnc2c1C` [Example 404]: the IC50 against human TLR7 is 32 nM; on human TLR8 (setting [1]), 4 nM; at human TLR9 (setting [2]), 5810 nM.
The corresponding values for `Cc1c(-c2[nH]c3cnc(N4CC5(CN(CC6(C)COC6)C5)C4)c(F)c3c2C(C)C)cn2ncnc2c1C` [Example 405] are 46 nM, 15 nM and 17100 nM.
On the same counts, the results for `Cc1c(-c2[nH]c3cnc(N4CC5(C4)CN(C4CCN(C(C)C)CC4)C5)c(F)c3c2C(C)C)cn2ncnc2c1C` [Example 406] are 8.4 nM, 4.8 nM and 937 nM.
The corresponding values for `Cc1c(-c2[nH]c3cnc(N4CC5(CN(C)C5)C4)c(F)c3c2C(C)C)cn2ncnc2c1C` [Example 407] are 47 nM, 828 nM and 35400 nM.
`CCN1CC2(C1)CN(c1ncc3[nH]c(-c4cn5ncnc5c(C)c4C)c(C(C)C)c3c1F)C2` [Example 408]: the results for the IC50 at human TLR7, on human TLR8 (setting [1]) and on human TLR9 (setting [2]) were 16 nM, 61 nM and 12400 nM, respectively.
On the same counts, the results for `Cc1c(-c2[nH]c3cnc(N4CCN(C5COC5)CC4)c(F)c3c2C(C)C)cn2ncnc2c1C` [Example 409] are 2.5 nM, 3.4 nM and more than 50000 nM.
For the compound `Cc1c(-c2[nH]c3cnc(N4CCN(CC5(C)COC5)CC4)c(F)c3c2C(C)C)cn2ncnc2c1C` [Example 410], the figures for the IC50 at human TLR7, at human TLR8 (setting [1]) and on human TLR9 (setting [2]) were 15 nM, 1.3 nM and more than 50000 nM, respectively.
The corresponding values for `Cc1c(-c2[nH]c3cnc(N4CCN(CC5CCOCC5)CC4)c(F)c3c2C(C)C)cn2ncnc2c1C` [Example 411] are 9.6 nM, 0.18 nM and 11200 nM.
With `Cc1c(-c2[nH]c3cnc(N4CCN(C(C)C)CC4)c(F)c3c2C(C)C)cn2ncnc2c1C` [Example 412], the IC50 against human TLR7 is 6.7 nM; on human TLR8 (setting [1]), 0.29 nM; on human TLR9 (setting [2]), 5740 nM.
`CNC(=O)CN1CCN(c2ncc3[nH]c(-c4cn5ncnc5c(C)c4C)c(C(C)C)c3c2C)CC1` [Example 413]: the IC50 against human TLR7 was 29 nM; at human TLR8 (setting [1]), 6.1 nM; on human TLR9 (setting [2]), more than 50000 nM.
For the compound `Cc1c(-c2[nH]c3cnc(N4CCN(CC(N)=O)CC4)c(C)c3c2C(C)C)cn2ncnc2c1C` [Example 414], the results for the IC50 at human TLR7, at human TLR8 (setting [1]) and on human TLR9 (setting [2]) were 41 nM, 6.2 nM and more than 50000 nM, respectively.
With `Cc1c(-c2[nH]c3cnc(N4CCN(CCS(C)(=O)=O)CC4)c(C)c3c2C(C)C)cn2ncnc2c1C` [Example 415], the IC50 is 26 nM against human TLR7, 5.2 nM on human TLR8 (setting [1]) and more than 50000 nM on human TLR9 (setting [2]).
Consider `Cc1c(-c2[nH]c3cnc(N4CCN(C(=O)CN(C)C)CC4)c(C)c3c2C(C)C)cn2ncnc2c1C` [Example 416, 1-(4-(2-(7,8-dimethyl-[1,2,4]triazolo[1,5-a]pyridin-6-yl)-3-isopropyl-4-methyl-1H-pyrrolo[2,3-c]pyridin-5-yl)piperazin-1-yl)-2-(dimethylamino)ethan-1-one], for which the IC50 on human TLR7 was found to be 10 nM; at human TLR8 (setting [1]), 1.7 nM; at human TLR9 (setting [2]), 1730 nM.
The corresponding values for `Cc1c(-c2[nH]c3cnc(N4CCN(C5COC5)CC4)c(C)c3c2C(C)C)cn2ncnc2c1C` [Example 417, 6-(3-isopropyl-4-methyl-5-(4-(oxetan-3-yl)piperazin-1-yl)-1H-pyrrolo[2,3-c]pyridin-2-yl)-7,8-dimethyl-[1,2,4]triazolo[1,5-a]pyridine] are 16 nM, 13 nM and more than 50000 nM.
Consider `Cc1c(-c2[nH]c3cnc(N4CCN(C5CCOCC5)CC4)c(C)c3c2C(C)C)cn2ncnc2c1C` [Example 418], for which the figures for the IC50 at human TLR7, at human TLR8 (setting [1]) and on human TLR9 (setting [2]) were 19 nM, 2.2 nM and 6010 nM, respectively.
On the same counts, the results for `Cc1c(-c2[nH]c3cnc(N4CCN(CC5CCOCC5)CC4)c(C)c3c2C(C)C)cn2ncnc2c1C` [Example 419] are 32 nM, 1.4 nM and 5900 nM.
The corresponding values for `Cc1c(-c2[nH]c3cnc(N4CCN(C(=O)CN5CCOCC5)CC4)c(F)c3c2C(C)C)cn2ncnc2c1C` [Example 421] are 16 nM, 12 nM and more than 50000 nM.
For `Cc1c(-c2[nH]c3cnc(N4CCN(C(=O)CN(C)C)CC4)c(F)c3c2C(C)C)cn2ncnc2c1C` [Example 422], the results for the IC50 at human TLR7, at human TLR8 (setting [1]) and on human TLR9 (setting [2]) were 3.1 nM, 2 nM and 6820 nM, respectively.
Consider `Cc1c(-c2[nH]c3cnc(N4CCN(CC(=O)N5CCOCC5)CC4)c(F)c3c2C(C)C)cn2ncnc2c1C` [Example 423], for which the IC50 at human TLR7 came to 5.4 nM; at human TLR8 (setting [1]), 0.59 nM; on human TLR9 (setting [2]) it was 42500 nM.
With `COCCN1CCN(c2ncc3[nH]c(-c4cn5ncnc5c(C)c4C)c(C(C)C)c3c2F)CC1` [Example 424], the IC50 on human TLR7 was 6.3 nM; at human TLR8 (setting [1]) it was 0.39 nM; on human TLR9 (setting [2]), 17700 nM.
On the same counts, the results for `Cc1c(-c2[nH]c3cnc(N4CCN(S(C)(=O)=O)CC4)c(F)c3c2C(C)C)cn2ncnc2c1C` [Example 425] are 13 nM, 17 nM and more than 50000 nM.
Take `Cc1c(-c2[nH]c3cnc(N4CCN(CC(C)(C)O)CC4)c(F)c3c2C(C)C)cn2ncnc2c1C` [Example 426]: the IC50 is 30 nM against human TLR7, 0.54 nM on human TLR8 (setting [1]) and more than 50000 nM at human TLR9 (setting [2]).
The corresponding values for `CC(=O)N1CCN(c2ncc3[nH]c(-c4cn5ncnc5c(C)c4C)c(C(C)C)c3c2F)CC1` [Example 427] are 35 nM, 37 nM and more than 50000 nM.
For `Cc1c(-c2[nH]c3cnc(N4CCN(CC(=O)N(C)C)CC4)c(F)c3c2C(C)C)cn2ncnc2c1C` [Example 428], the IC50 against human TLR7 came out at 12 nM; on human TLR8 (setting [1]) it was 1.1 nM; on human TLR9 (setting [2]) it was 39500 nM.
On the same counts, the results for `Cc1c(-c2[nH]c3cnc(N4CCN(CC(N)=O)CC4)c(F)c3c2C(C)C)cn2ncnc2c1C` [Example 429] are 9.3 nM, 2.3 nM and more than 50000 nM.
With `Cc1c(-c2[nH]c3cnc(N4CCN(CC5CC5)CC4)c(F)c3c2C(C)C)cn2ncnc2c1C` [Example 430], the results for the IC50 against human TLR7, at human TLR8 (setting [1]) and at human TLR9 (setting [2]) were 5.9 nM, 0.27 nM and 6110 nM, respectively.
For `Cc1c(-c2[nH]c3cnc(N4CCN(C5CCOCC5)CC4)c(F)c3c2C(C)C)cn2ncnc2c1C` [Example 431], the IC50 at human TLR7 turned out to be 3.5 nM; on human TLR8 (setting [1]), 0.32 nM; on human TLR9 (setting [2]), 8180 nM.
As for `Cc1c(-c2[nH]c3cnc(N4CCN(CC(C)(C)C)CC4)c(F)c3c2C(C)C)cn2ncnc2c1C` [Example 432], the figures for the IC50 on human TLR7, on human TLR8 (setting [1]) and on human TLR9 (setting [2]) were 102 nM, 2.7 nM and more than 50000 nM, respectively.
The corresponding values for `CCN1CCN(c2ncc3[nH]c(-c4cn5ncnc5c(C)c4C)c(C(C)C)c3c2F)CC1` [Example 433] are 3 nM, 0.32 nM and 6910 nM.
In the case of `Cc1c(-c2[nH]c3cnc(N4CC5(CN(CC(F)(F)F)C5)C4)c(F)c3c2C(C)C)cn2ncnc2c1C` [Example 434], the IC50 was 90 nM at human TLR7, 48 nM on human TLR8 (setting [1]) and more than 50000 nM on human TLR9 (setting [2]).

For the origin of these results see patent US11912703B2, “6-azaindole compounds” (BRISTOL-MYERS SQUIBB COMPANY, priority 2017, dated 2024).
